The text below walks through data of patent publication US7135466B2 (Kirin Beer Kabushiki Kaisha, priority 1999, dated 2006).

T1 sequence (P16234 24-1089): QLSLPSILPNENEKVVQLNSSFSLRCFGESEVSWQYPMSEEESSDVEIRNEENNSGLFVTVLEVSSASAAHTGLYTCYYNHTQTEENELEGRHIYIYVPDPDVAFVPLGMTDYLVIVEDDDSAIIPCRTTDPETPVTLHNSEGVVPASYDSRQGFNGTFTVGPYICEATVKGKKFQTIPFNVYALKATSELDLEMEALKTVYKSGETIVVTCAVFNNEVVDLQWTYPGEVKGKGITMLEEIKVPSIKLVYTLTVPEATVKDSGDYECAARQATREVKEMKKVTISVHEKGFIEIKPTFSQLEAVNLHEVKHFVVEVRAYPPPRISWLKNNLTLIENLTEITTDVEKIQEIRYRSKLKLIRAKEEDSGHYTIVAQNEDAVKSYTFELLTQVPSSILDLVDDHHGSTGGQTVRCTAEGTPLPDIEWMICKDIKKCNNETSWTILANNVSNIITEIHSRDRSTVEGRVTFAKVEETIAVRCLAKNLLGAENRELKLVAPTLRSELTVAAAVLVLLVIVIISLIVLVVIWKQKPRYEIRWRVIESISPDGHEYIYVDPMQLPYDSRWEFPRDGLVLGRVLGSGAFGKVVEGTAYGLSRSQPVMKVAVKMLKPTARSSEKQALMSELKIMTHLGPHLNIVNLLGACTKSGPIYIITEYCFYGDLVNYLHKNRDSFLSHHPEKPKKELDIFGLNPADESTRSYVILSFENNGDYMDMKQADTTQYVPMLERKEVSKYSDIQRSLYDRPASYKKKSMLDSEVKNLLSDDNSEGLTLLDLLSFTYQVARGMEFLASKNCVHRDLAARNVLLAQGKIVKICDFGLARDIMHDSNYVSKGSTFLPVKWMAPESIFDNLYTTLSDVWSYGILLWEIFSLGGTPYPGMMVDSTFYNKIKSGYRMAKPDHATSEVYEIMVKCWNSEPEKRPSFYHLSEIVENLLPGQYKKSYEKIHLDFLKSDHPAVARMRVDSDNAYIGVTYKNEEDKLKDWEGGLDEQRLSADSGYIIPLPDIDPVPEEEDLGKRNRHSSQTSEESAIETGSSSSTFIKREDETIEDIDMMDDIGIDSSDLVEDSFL

The first assay has as its target T1, PDGF-Ra (Homo sapiens, UniProt P16234).
T1 construct: host or cells: G-292 human osteosarcoma cells
Nature of the assay: Inhibitory activity against PDGF-Ra phosphorylation by PDGF-AA stimulation using G292. To be noted: > means inhibition at indicated concentration not more than 50%, < and << not less than 50%; read-out: PDGF (E) IC50. The format is cell-based. The procedure, abridged: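 Phospho-PDGF-Ra ELISA: capture with PY-20 antiphosphotyrosine, detection with anti-PDGF-Ra and peroxidase secondary, read at 450 nm. Lysates came from G-292 osteosarcoma cells starved in 0.1% FBS, compound-treated 1 hr at 37° C, and stimulated with 50 ng/ml PDGF-AA for 5 min.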
The IC50 is the concentration that inhibits the measured activity by half. Regarding `COc1cc2nccc(Oc3ccc(OCCCOc4c(C)cccc4C)cc3)c2cc1OC` [Example 799, 4-{4-[3-(2,6-Dimethylphenoxy)propoxy]phenoxy}-6,7-dimethoxyquinoline], the IC50 is 14 nM.
The same measure, in the same setting: the figure for `COc1cc2nccc(Oc3ccc(NC(=S)NC(=O)c4ccc(C)cc4C)cc3Cl)c2cc1OC` [Example 1016, N-{3-Chloro-4-[(6,7-dimethoxy-4-quinolyl)oxy]phenyl}-N′-(2,4-dimethylbenzoyl)thiourea] is 48 nM; for `COc1cc2nccc(Oc3ccc(NC(=S)NC(=O)c4cc(C)ccc4C)cc3Cl)c2cc1OC` [Example 1017, N-{3-Chloro-4-[(6,7-dimethoxy-4-quinolyl)oxy]phenyl}-N′-(2,5-dimethylbenzoyl)thiourea] it is 48 nM.
For `COc1cc2nccc(Oc3ccc(NC(=S)NC(=O)N(CCCl)CCCl)cc3Cl)c2cc1OC` [Example 1049, N-{3-Chloro-4-[(6,7-dimethoxy-4-quinolyl)oxy]phenyl}-[{[di(2-chloroethyl)amino]carbonyl}amino]methanethioamide], the IC50 is 44 nM.
Same read-out and setting: for `COc1cc2nccc(Oc3ccc(NC(=S)NC(=O)c4ccc(C5CCCCC5)cc4)cc3)c2cc1OC` [Example 1124, N-(4-Cyclohexylbenzoyl)-N′-{4-[(6,7-dimethoxy-4-quinolyl)oxy]phenyl}thiourea] the value was over 100 nM; for `COc1cc2nccc(Oc3ccc(NC(=S)NC(=O)c4ccc(C5CCCCC5)cc4)cc3Cl)c2cc1OC` [Example 1127, N-{3-Chloro-4-[(6,7-dimethoxy-4-quinolyl)oxy]phenyl}-N′-(4-cyclohexylbenzoyl)thiourea], over 100 nM; for `COc1cc2nccc(Oc3ccc(NC(=S)NC(=O)c4cc(C)cc(C)c4)cc3)c2cc1OC` [Example 1129, N-{4-[(6,7-Dimethoxy-4-quinolyl)oxy]phenyl}-N′-(3 5-dimethylbenzoyl)thiourea], over 100 nM.
In the case of `CCN(C(=S)NC(=O)CCc1ccccc1OC)c1ccc(Oc2ccnc3cc(OC)c(OC)cc23)cc1` [Example 1142, N-{4-[(6,7-Dimethoxy-4-quinolyl)oxy]phenyl}-N-ethyl-N′-[3-(2-methoxyphenyl)propanoyl]thiourea], the IC50 turned out to be 80 nM.
The same measure, in the same setting: the figure for `CCN(C(=S)NC(=O)C1CC1c1ccccc1)c1ccc(Oc2ccnc3cc(OC)c(OC)cc23)cc1` (stereo not drawn) [Example 1143, N-{4-[(6,7-Dimethoxy-4-quinolyl)oxy]phenyl}-N-ethyl-N′-[(2-phenylcyclopropyl)carbonyl]thiourea] is over 100 nM; for `COc1cc2nccc(Oc3ccc(NC(=S)NC(=O)c4cccnc4)cc3)c2cc1OC` [Example 1152, N-{4-[(6,7-Dimethoxy-4-quinolyl)oxy]phenyl}-N′-(3-pyridylcarbonyl)thiourea] it is under 10 nM.
Still for that read-out and setting: for `COc1cc2ncnc(Oc3ccc(NC(=S)NC(=O)c4ccccc4C(F)(F)F)cc3)c2cc1OC` [Example 1157, N-{4-[(6,7-Dimethoxy-4-quinazolinyl)oxy]phenyl}-N′-[2-(trifluoromethyl)benzoyl]thiourea] the value was under 10 nM.
In the case of `COc1cc2ncnc(Oc3ccc(NC(=S)NC(=O)c4cc(Cl)cc(Cl)c4)cc3)c2cc1OC` [Example 1158, N-(3,5-Dichlorobenzoyl)-N′-{4-[(6,7-dimethoxy-4-quinazolinyl)oxy]phenyl}thiourea], the concentration for half-maximal inhibition (IC50) worked out at 46 nM.
On the same count and under the same terms, the figure for `COc1cc2nccc(Oc3ccc(NC(=S)NC(=O)c4cc(Cl)cc(Cl)c4)c(Cl)c3)c2cc1OC` [Example 1159, N-{2-Chloro-4-[(6,7-dimethoxy-4-quinolyl)oxy]phenyl}-N′-(3,5-dichlorobenzoyl)thiourea] is over 100 nM; for `COc1cc2nccc(Oc3ccc(NC(=S)NC(=O)c4ccccc4F)cc3F)c2cc1OC` [Example 1160, N-{4-[(6,7-Dimethoxy-4-quinolyl)oxy]-3-fluorophenyl}-N′-(2-fluorobenzoyl)thiourea] it is under 10 nM; for `COc1cc2ncnc(Oc3ccc(NC(=S)NC(=O)c4ccccc4F)cc3)c2cc1OC` [Example 1161, N-{4-[(6,7-Dimethoxy-4-quinazolinyl)oxy]phenyl}-N′-(2-fluorobenzoyl)thiourea] it is under 10 nM.
For `COc1cc2ncnc(Oc3ccc(NC(=S)NC(=O)c4c(Cl)cccc4Cl)cc3)c2cc1OC` [Example 1162, N-(2,6-Dichlorobenzoyl)-N′-{4-[(6,7-dimethoxy-4-quinazolinyl)oxy]phenyl}thiourea], the IC50 was found to be 13 nM.
With `COc1cc2nccc(Oc3ccc(NC(=S)NC(=O)c4cccc(F)c4)c(Cl)c3)c2cc1OC` [Example 1163, N-{2-Chloro-4-[(6,7-dimethoxy-4-quinolyl)oxy]phenyl}-N′-(3-fluorobenzoyl)thiourea], the concentration for half-maximal inhibition (IC50) was over 100 nM.
Same read-out and setting: for `COc1cc2ncnc(Oc3ccc(NC(=S)NC(=O)c4cccc(F)c4)cc3)c2cc1OC` [Example 1164, N-{4-[(6,7-Dimethoxy-4-quinazolinyl)oxy]phenyl}-N′-(3-fluorobenzoyl)thiourea] the value was under 10 nM; for `COc1cc2nccc(Oc3ccc(NC(=S)NC(=O)c4cccc(Br)c4)c(Cl)c3)c2cc1OC` [Example 1165, N-(3-Bromobenzoyl)-N′-{2-chloro-4-[(6,7-dimethoxy-4-quinolyl)oxy]phenyl}thiourea], over 100 nM; for `COc1cc2nccc(Oc3ccc(NC(=S)NC(=O)c4ccc(Br)cc4)cc3)c2cc1OC` [Example 1166, N-(4-Bromobenzoyl)-N′-{4-[(6,7-dimethoxy-4-quinolyl)oxy]phenyl}thiourea], under 10 nM.
Consider `COc1cc2nccc(Oc3ccc(NC(=S)NC(=O)c4ccc(Br)cc4)c(Cl)c3)c2cc1OC` [Example 1167, N-(4-Bromobenzoyl)-N′-{2-chloro-4-[(6,7-dimethoxy-4-quinolyl)oxy]phenyl}thiourea], for which the IC50 is over 100 nM.
Turning to `COc1cc2ncnc(Oc3ccc(NC(=S)NC(=O)c4ccc(Br)cc4)cc3)c2cc1OC` [Example 1168, N-(4-Bromobenzoyl)-N′-{4-[(6,7-dimethoxy-4-quinazolinyl)oxy]phenyl}thiourea], the IC50 is under 10 nM.
Take `COc1cc2nccc(Oc3ccc(NC(=S)NC(=O)Cc4ccc(CBr)cc4)cc3)c2cc1OC` [Example 1169, N-{2-[4-(Bromomethyl)phenyl]acetyl}-N′-{4-[(6,7-dimethoxy-4-quinolyl)oxy]phenyl}thiourea]: the IC50 was 37 nM.
Still for that read-out and setting: the figure for `COc1cc2ncnc(Oc3ccc(NC(=S)NC(=O)CCCCCl)cc3)c2cc1OC` [Example 1170, N-(5-Chloropentanoyl)-N′-{4-[(6,7-dimethoxy-4-quinazolinyl)oxy]phenyl}thiourea] is under 10 nM; for `COc1cc2nccc(Oc3ccc(NC(=S)NC(=O)Cc4cccs4)cc3)c2cc1OC` [Example 1171, N-{4-[(6,7-Dimethoxy-4-quinolyl)oxy]phenyl}-N′-[2-(2-thienyl)acetyl]thiourea] it is 13 nM.
With `COc1cc2ncnc(Oc3ccc(NC(=S)NC(=O)Cc4cccs4)cc3)c2cc1OC` [Example 1172, N-{4-[(6,7-Dimethoxy-4-quinazolinyl)oxy]phenyl}-N′-[2-(2-thienyl)acetyl]thiourea], the IC50 was found to be 34 nM.
Turning to `COc1ccc(C(=O)NC(=S)Nc2ccc(Oc3ccnc4cc(OC)c(OC)cc34)cc2Cl)cc1` [Example 1173, N-{2-Chloro-4-[(6,7-dimethoxy-4-quinolyl)oxy]phenyl}-N′-(4-methoxybenzoyl)thiourea], the IC50 was over 100 nM.
The same measure, in the same setting: for `COc1cc2nccc(Oc3ccc(NC(=S)NC(=O)c4ccc(Cl)cc4)c(Cl)c3)c2cc1OC` [Example 1174, N-(4-Chlorobenzoyl)-N′-{2-chloro-4-[(6,7-dimethoxy-4-quinolyl)oxy]phenyl}thiourea] the value was over 100 nM.
Still for that read-out and setting: the figure for `COc1ccc(C(=O)NC(=S)Nc2ccc(Oc3ncnc4cc(OC)c(OC)cc34)cc2)c(OC)c1` [Example 1175, N-(2,4-Dimethoxybenzoyl)-N′-{4-[(6,7-dimethoxy-4-quinazolinyl)oxy]phenyl}thiourea] is 37 nM; for `COc1ccc(C(=O)NC(=S)Nc2ccc(Oc3ccnc4cc(OC)c(OC)cc34)cc2Cl)c(OC)c1` [Example 1176, N-{2-Chloro-4-[(6,7-dimethoxy-4-quinolyl)oxy]phenyl}-N′-(2,4-dimethoxybenzoyl)thiourea] it is over 100 nM; for `CCOC(=O)CCCC(=O)NC(=S)Nc1ccc(Oc2ncnc3cc(OC)c(OC)cc23)cc1` [Example 1177, Ethyl 5-[({4-[(6,7-dimethoxy-4-quinazolinyl)oxy]anilino}carbothioyl)amino]-5-oxopentanoate] it is 17 nM.
Regarding `CCOC(=O)CCC(=O)NC(=S)Nc1ccc(Oc2ncnc3cc(OC)c(OC)cc23)cc1` [Example 1178, Ethyl 4-[({4-[(6,7-dimethoxy-4-quinazolinyl)oxy]anilino}carbothioyl)amino]-4-oxobutanoate], the IC50 is 78 nM.
On the same count and under the same terms, the figure for `COc1cc2nccc(Oc3ccc(NC(=S)NC(=O)CCc4cccc(C)c4)cc3Cl)c2cc1OC` [Example 1184, N-{3-Chloro-4-[(6,7-dimethoxy-4quinolyl)oxy]phenyl}-N′-[3-(3-methylphenyl)propanoyl]thiourea] is 55 nM; for `COc1cc2nccc(Oc3ccc(NC(=S)NC(=O)C(C)(C)C)cc3Cl)c2cc1OC` [Example 1187, N-{3-Chloro-4-[(6,7-dimethoxy-4-quinolyl)oxy]phenyl}-N′-(2,2-dimethylpropanoyl)thiourea] it is 24 nM; for `COc1cc2ncnc(Oc3ccc(NC(=S)NC(=O)C(C)(C)C)cc3)c2cc1OC` [Example 1188, N-{4-[(6,7-Dimethoxy-4-quinazolinyl)oxy]phenyl}-N′-(2,2-dimethylpropanoyl)thiourea] it is 76 nM.

The assay is the same for the next values; noted with them: G292; figure in parentheses in >100( ); at 100 nM; read-out: PDGF (E) inhibition (%) at 100 nM.
The term inhibition denotes the relative decrease from the control value, in per cent. In the case of `COc1cc2nccc(Oc3ccc(NC(=S)NC(=O)c4ccc(C5CCCCC5)cc4)cc3)c2cc1OC` [Example 1124, N-(4-Cyclohexylbenzoyl)-N′-{4-[(6,7-dimethoxy-4-quinolyl)oxy]phenyl}thiourea], the inhibition at 0.1 µM is 22%.
As for `COc1cc2nccc(Oc3ccc(NC(=S)NC(=O)c4ccc(C5CCCCC5)cc4)cc3Cl)c2cc1OC` [Example 1127, N-{3-Chloro-4-[(6,7-dimethoxy-4-quinolyl)oxy]phenyl}-N′-(4-cyclohexylbenzoyl)thiourea], the inhibition at 0.1 µM came to 8%.
The same measure, in the same setting: for `COc1cc2nccc(Oc3ccc(NC(=S)NC(=O)c4cc(C)cc(C)c4)cc3)c2cc1OC` [Example 1129, N-{4-[(6,7-Dimethoxy-4-quinolyl)oxy]phenyl}-N′-(3 5-dimethylbenzoyl)thiourea] the value was 48%.
Still for that read-out and setting: the figure for `CCN(C(=S)NC(=O)C1CC1c1ccccc1)c1ccc(Oc2ccnc3cc(OC)c(OC)cc23)cc1` (stereo not drawn) [Example 1143, N-{4-[(6,7-Dimethoxy-4-quinolyl)oxy]phenyl}-N-ethyl-N′-[(2-phenylcyclopropyl)carbonyl]thiourea] is 32%.
